This is an account of results in ChEMBL document CHEMBL1139196, “Synthesis of fluorescent-labeled aeruginosin derivatives for high-throughput fluorescence correlation spectroscopy assays” (Bioorg Med Chem Lett, 2007).

For the assay, the target named is Trypsin (Homo sapiens, UniProt P07477+P07478+P35030). Description: Inhibition of trypsin by FCS method. The class given is protein assay.
`N=C(N)NCCC[C@H](NC(=O)[C@@H]1C[C@@H]2CC[C@@H](O)C[C@@H]2N1C(=O)[C@@H](Cc1ccc(O)cc1)NC(=O)[C@H](O)Cc1ccc(O)cc1)C(=O)O` came in with a 50% inhibitory concentration (IC50) of 1 µM.

With `N=C(N)NCCCCNC(=O)[C@@H]1C[C@@H]2CC[C@@H](O)C[C@@H]2N1C(=O)[C@@H](Cc1ccc(O)cc1)NC(=O)[C@H](O)Cc1ccc(O)cc1`, the IC50 was found to be 0.15 µM.

For the molecule `N=C(N)NCCC[C@H](NC(=O)[C@@H]1C[C@@H]2CC[C@@H](O)C[C@@H]2N1C(=O)[C@H](Cc1ccccc1)NC(=O)[C@H](O)Cc1ccc(O)cc1)C(=O)O`, the 50% inhibitory concentration (IC50) was determined as 12 µM.

On to `N=C(N)NCCC[C@@H](CO)NC(=O)[C@@H]1C[C@@H]2CC[C@@H](O)C[C@@H]2N1C(=O)[C@@H](Cc1ccc(O)cc1)NC(=O)[C@H](O)Cc1ccc(O)cc1`, for which the IC50 worked out at 8.8 µM.

`CC(C)C[C@@H](NC(=O)[C@H](O)Cc1ccc(O)cc1)C(=O)N1[C@H](C(=O)N[C@@H](CCCNC(=N)N)C(=O)O)C[C@@H]2CC[C@@H](O)C[C@@H]21` returned an IC50 of 0.65 µM.

In general, IC50 refers to the concentration that inhibits the measured activity by half. Lower therefore signals inhibition by little substance.
